Reference: patent publication US20100249071A1, “Modulators of S1P and Methods of Making And Using” (Exelixis, Inc., priority 2009, published 2010)
Read-outs that look alike come from different tables or passages of the source.

How the values were obtained:
S1P1 = target: T1, S1P1 (Homo sapiens, UniProt P21453); experiment: Tango β-arrestin recruitment assay in U2OS cells (Assay 2b); type: cell-based
T1 construct: host or cells: U2OS
How it was run: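 In this agonist-mode Tango assay, U2OS cells carrying S1P1 and the reporter were serum-starved 48 h, then exposed overnight at 37 °C to compound (10 points, 3-fold, top 1 μM, 1% DMSO). β-Lactamase F460/F530 ratio was normalized to 1 μM S1P, and EC50 was fitted.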

[1] = target: T2, hS1PR5 (hEdg8) membrane protein (Homo sapiens, UniProt Q9H228); experiment: hS1P5R GTPγS binding assay (Assay 4); type: biochemical
T2 construct: expressed in transfected cells; host or cells: CHO
How it was run: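 Membranes (5 μg) from CHO cells expressing hS1PR5, incubated 1 h at room temperature with 30 μM GDP, 0.1 nM [35S]GTPγS, 0.25% fatty acid free BSA and serially diluted compound in pH 7.9 Tris buffer with MgCl2. WGA SPA beads added for another 1 h, then bound [35S]GTPγS counted by scintillation.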

S1P3 = target: T3, S1P3 (Homo sapiens, UniProt Q99500); experiment: S1P3 Tango β-arrestin recruitment assay in HEK293 cells (Assay 5); type: cell-based; settings: read-out: Assay 5 EC50
T3 construct: host or cells: HEK293 (transient transfection)
How it was run: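 HEK293 cells transiently expressing S1P3 fused via TEV-cleavable linker to tTA, with β-arrestin2–TEV, treated 16-18 h at 37 °C with compounds (top 10 μM, 10-point 3-fold, 1% DMSO). Luciferase reporter luminescence normalised to DMSO background and 5 μM S1P control as percent activity; EC50 from concentration-response curves.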

[2] = target: T4, hS1P1R (hEdg1) membrane protein (Homo sapiens, UniProt P21453); experiment: hS1P1R GTPγS binding assay (Assay 3a); type: biochemical
T4 construct: purchased Lonza
How it was run: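 Membranes (4 μg) expressing hS1P1R incubated 1 h at room temperature with 30 μM GDP, 0.1 nM [^35S]GTPγS, 0.25% fatty acid free BSA and serially diluted agonist in Tris-HCl pH 7.9/NaCl/MgCl2/EGTA buffer. Bound [^35S]GTPγS captured on WGA SPA beads (further 1 h) and counted.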

[3] = * = rEC50 measured rather than EC50, read-out: Assay 2b rEC50 (relative EC50, cells marked *)

T3 sequence (P32121 whole entry): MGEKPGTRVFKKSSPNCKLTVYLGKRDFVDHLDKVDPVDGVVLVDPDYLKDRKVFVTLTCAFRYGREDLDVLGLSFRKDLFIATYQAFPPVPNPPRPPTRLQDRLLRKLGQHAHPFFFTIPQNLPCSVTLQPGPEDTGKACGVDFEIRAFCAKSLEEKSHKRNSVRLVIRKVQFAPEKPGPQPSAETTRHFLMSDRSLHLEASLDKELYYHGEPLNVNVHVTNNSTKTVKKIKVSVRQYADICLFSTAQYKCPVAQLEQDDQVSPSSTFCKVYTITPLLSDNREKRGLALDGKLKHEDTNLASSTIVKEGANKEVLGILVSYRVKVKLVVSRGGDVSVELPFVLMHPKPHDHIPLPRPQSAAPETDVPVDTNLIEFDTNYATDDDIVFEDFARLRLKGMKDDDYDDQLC
T3 sequence (Q99500 whole entry): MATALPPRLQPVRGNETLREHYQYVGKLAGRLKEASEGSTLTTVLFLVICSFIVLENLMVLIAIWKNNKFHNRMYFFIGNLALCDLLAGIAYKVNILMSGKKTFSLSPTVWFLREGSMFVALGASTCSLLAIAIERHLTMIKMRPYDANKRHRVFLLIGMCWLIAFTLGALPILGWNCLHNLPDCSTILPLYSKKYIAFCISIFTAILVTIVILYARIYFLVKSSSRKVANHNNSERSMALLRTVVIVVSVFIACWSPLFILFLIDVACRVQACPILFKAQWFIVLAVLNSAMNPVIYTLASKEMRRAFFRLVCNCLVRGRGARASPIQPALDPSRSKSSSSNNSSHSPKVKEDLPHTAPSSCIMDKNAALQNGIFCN
T1 sequence (P32121 whole entry): as the sequence (P32121 whole entry) above
T1 sequence (P21453 whole entry): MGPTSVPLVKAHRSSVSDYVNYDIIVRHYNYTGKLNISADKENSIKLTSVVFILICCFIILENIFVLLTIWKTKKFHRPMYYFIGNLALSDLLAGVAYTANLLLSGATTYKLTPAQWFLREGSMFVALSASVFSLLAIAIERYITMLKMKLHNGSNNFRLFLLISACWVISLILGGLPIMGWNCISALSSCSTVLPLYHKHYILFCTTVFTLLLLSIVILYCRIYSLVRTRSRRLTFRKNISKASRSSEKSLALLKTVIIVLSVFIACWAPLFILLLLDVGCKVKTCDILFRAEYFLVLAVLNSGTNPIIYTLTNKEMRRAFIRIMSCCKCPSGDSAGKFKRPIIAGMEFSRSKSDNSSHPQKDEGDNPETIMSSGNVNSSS
T2 sequence (Q9H228 whole entry): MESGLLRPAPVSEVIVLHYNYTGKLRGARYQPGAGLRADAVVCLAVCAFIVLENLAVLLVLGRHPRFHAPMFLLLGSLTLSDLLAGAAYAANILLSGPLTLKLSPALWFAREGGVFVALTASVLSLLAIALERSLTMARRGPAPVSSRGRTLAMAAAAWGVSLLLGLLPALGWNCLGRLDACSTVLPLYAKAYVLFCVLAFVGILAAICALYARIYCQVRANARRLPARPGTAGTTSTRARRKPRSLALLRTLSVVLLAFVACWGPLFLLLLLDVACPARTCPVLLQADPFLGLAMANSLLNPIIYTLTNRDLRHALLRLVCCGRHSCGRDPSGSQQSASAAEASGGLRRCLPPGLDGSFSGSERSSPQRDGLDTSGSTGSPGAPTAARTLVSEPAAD
T4 sequence (P21453 whole entry): as the sequence (P21453 whole entry) above

Row | SMILES | EC50 (S1P1; read-out: Assay 2b EC50) [nM] | EC50 [1] [nM] | EC50 (S1P3) [nM] | EC50 [2] [nM] | EC50 (S1P1; [3]) [nM]
1 | CC(C)Cc1ccc(-c2nnc(-c3cc(F)c(OC[C@H](N)CO)cc3Cl)s2)cc1 [Entry 3, (2R)-2-amino-3-[(5-chloro-2-fluoro-4-{5-[4-(2-methylpropyl)phenyl]-1,3,4-thiadiazol-2-yl}phenyl)oxy]propan-1-ol] | 50 to 250 | 250 to 2800 | > 10000 | 250 to 2800 | –
2 | CC(C)N(C)c1cc(-c2nnc(-c3cc(F)c(OC[C@H](N)CO)cc3Cl)s2)cc(Cl)n1 [Entry 21, (2R)-2-amino-3-{[5-chloro-4-(5-{2-chloro-6-[methyl(1-methylethyl)amino]pyridin-4-yl}-1,3,4-thiadiazol-2-yl)-2-fluorophenyl)oxy}propan-1-ol] | 10 to 50 | 50 to 250 | > 10000 | 50 to 250 | –
3 | CC(C)Oc1ccc(-c2nnc(-c3cc(F)c(OC[C@@H](N)[C@H](C)O)cc3Cl)s2)cc1C#N [Entry 55, 5-[5-(4-{[(2R,3S)-2-amino-3-hydroxybutyl]oxy}-2-chloro-5-fluorophenyl)-1,3,4-thiadiazol-2-yl]-2-[(1-methylethyl)oxy]benzonitrile] | ≤ 10 | ≤ 10 | ≤ 250 | ≤ 10 | –
4 | Cc1nc(-c2nnc(-c3cc(F)c(OC[C@H](N)[C@@H](C)O)cc3Cl)s2)ccc1NC(C)C [Entry 103, (2R,3S)-3-amino-4-{[5-chloro-2-fluoro-4-(5-{6-methyl-5-[(1-methylethyl)amino]pyridin-2-yl}-1,3,4-thiadiazol-2-yl)phenyl]oxy}butan-2-ol] | 10 to 50 | 10 to 50 | > 250 | 10 to 50 | –
5 | N[C@H](CO)COc1cc(Cl)c(-c2nnc(-c3cc(F)cc(Br)c3)s2)cc1F [Entry 24, (2R)-2-amino-3-({4-[5-(3-bromo-5-fluorophenyl)-1,3,4-thiadiazol-2-yl]-5-chloro-2-fluorophenyl}oxy)propan-1-ol] | 50 to 250 | 250 to 2800 | > 10000 | 250 to 2800 | –
6 | CC(C)Nc1ccc(-c2nnc(-c3cc(F)c(OC[C@@H](N)[C@H](C)OP(=O)(O)O)cc3Cl)s2)cn1 [Entry 93, (1S,2R)-2-amino-3-{[5-chloro-2-fluoro-4-(5-{6-[(1-methylethyl)amino]pyridin-3-yl}-1,3,4-thiadiazol-2-yl)phenyl]oxy}-1-methylpropyl dihydrogen phosphate] | – | 10 to 50 | > 250 | ≤ 10 | ≤ 10
7 | N#Cc1cc(-c2nnc(-c3cc(F)c(OC[C@H](N)CO)cc3Cl)s2)ccc1OC1COC1 [Entry 49, 5-[5-(4-{[(2R)-2-amino-3-hydroxypropyl]oxy}-2-chloro-5-fluorophenyl)-1,3,4-thiadiazol-2-yl]-2-(oxetan-3-yloxy)benzonitrile] | ≤ 10 | 50 to 250 | > 10000 | ≤ 10 | –
8 | Cc1cc(-c2nnc(-c3cc(F)c(OC[C@H](N)[C@@H](C)OP(=O)(O)O)cc3Cl)s2)cc(NC(C)C)n1 [Entry 94, (1R,2S)-2-amino-3-{[5-chloro-2-fluoro-4-(5-{2-methyl-6-[(1-methylethyl)amino]pyridin-4-yl}-1,3,4-thiadiazol-2-yl)phenyl]oxy}-1-methylpropyl dihydrogen phosphate] | – | 10 to 50 | ≤ 250 | ≤ 10 | ≤ 10
9 | Cc1cc(-c2nnc(-c3cc(F)c(OC[C@@H](N)[C@H](C)O)cc3Cl)s2)cc(NC(C)C)n1 [Entry 98, (2S,3R)-3-amino-4-{[5-chloro-2-fluoro-4-(5-{2-methyl-6-[(1-methylethyl)amino]pyridin-4-yl}-1,3,4-thiadiazol-2-yl)phenyl]oxy}butan-2-ol] | ≤ 10 | 50 to 250 | ≤ 250 | ≤ 10 | –
10 | CC(C)Nc1ccc(-c2nnc(-c3cc(F)c(OC[C@H](N)[C@@H](C)O)cc3Cl)s2)cn1 [Entry 46, (2R,3S)-3-amino-4-{[5-chloro-2-fluoro-4-(5-{6-[(1-methylethyl)amino]pyridin-3-yl}-1,3,4-thiadiazol-2-yl)phenyl]oxy}butan-2-ol] | 10 to 50 | 250 to 2800 | > 10000 | 250 to 2800 | –
